Assay results as given in the supplement of paper PMC10307832.

Experiments:
Assay in all cases: relative viability (nuclei count vs DMSO), 5 days (fraction); higher = more cells survive
XMD13-2 + Foretinib = compound: C1CC1C(=O)NC2=NNC3=C2C=CC(=C3)C4=CC(=CC=C4)C(=O)NC5CC5 [XMD13-2] + COc1cc2c(Oc3ccc(NC(=O)C4(C(=O)Nc5ccc(F)cc5)CC4)cc3F)ccnc2cc1OCCCN1CCOCC1 [Foretinib] (partner 0.25 µM)
Outline: (§1)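 Lung cancer cell lines were pin-tool dosed in 1536-well plates on the day after seeding, with either a lone drug or a fixed anchor-drug dose plus five library-drug doses (not always all listed) in √10 steps. Nuclei were counted on 4× images after 5 days. Relative viability is the ratio of treated-well to vehicle-well nuclei counts, with each value a median of duplicate plates.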

XMD13-2 + Navitoclax = compound: C1CC1C(=O)NC2=NNC3=C2C=CC(=C3)C4=CC(=CC=C4)C(=O)NC5CC5 [XMD13-2] + CC1(C)CCC(c2ccc(Cl)cc2)=C(CN2CCN(c3ccc(C(=O)NS(=O)(=O)c4ccc(N[C@H](CCN5CCOCC5)CSc5ccccc5)c(S(=O)(=O)C(F)(F)F)c4)cc3)CC2)C1 [Navitoclax] (partner 0.5 µM)
Outline: as §1

ALW-II-49-7 + Trametinib = compound: Cc1ccc(C(=O)Nc2cccc(C(F)(F)F)c2)cc1Nc1cncc(C(N)=O)c1 [ALW-II-49-7] + CC(=O)Nc1cccc(-n2c(=O)n(C3CC3)c(=O)c3c(Nc4ccc(I)cc4F)n(C)c(=O)c(C)c32)c1 [Trametinib] (partner 0.02 µM)
Outline: as §1

XMD13-2 + Crizotinib = compound: C1CC1C(=O)NC2=NNC3=C2C=CC(=C3)C4=CC(=CC=C4)C(=O)NC5CC5 [XMD13-2] + C[C@@H](Oc1cc(-c2cnn(C3CCNCC3)c2)cnc1N)c1c(Cl)ccc(F)c1Cl [Crizotinib] (partner 1 µM)
Outline: as §1

Row | Cell Line | relative viability (XMD13-2 + Foretinib; first compound 0.05 µM) | relative viability (XMD13-2 + Foretinib; first compound 0.1581 µM) | relative viability (XMD13-2 + Foretinib; first compound 0.5 µM) | relative viability (XMD13-2 + Foretinib; first compound 1.581 µM) | relative viability (XMD13-2 + Foretinib; first compound 5 µM) | relative viability (XMD13-2 + Navitoclax; first compound 0.05 µM) | relative viability (XMD13-2 + Navitoclax; first compound 0.1581 µM) | relative viability (XMD13-2 + Navitoclax; first compound 0.5 µM) | relative viability (XMD13-2 + Navitoclax; first compound 1.581 µM) | relative viability (XMD13-2 + Navitoclax; first compound 5 µM) | relative viability (ALW-II-49-7 + Trametinib; first compound 0.08 µM) | relative viability (ALW-II-49-7 + Trametinib; first compound 0.253 µM) | relative viability (ALW-II-49-7 + Trametinib; first compound 0.8 µM) | relative viability (ALW-II-49-7 + Trametinib; first compound 2.53 µM) | relative viability (ALW-II-49-7 + Trametinib; first compound 8 µM) | relative viability (XMD13-2 + Crizotinib; first compound 0.05 µM) | relative viability (XMD13-2 + Crizotinib; first compound 0.1581 µM) | relative viability (XMD13-2 + Crizotinib; first compound 0.5 µM) | relative viability (XMD13-2 + Crizotinib; first compound 1.581 µM) | relative viability (XMD13-2 + Crizotinib; first compound 5 µM)
1 | A-427 | 1.23 | 1.08 | 1.05 | 1.02 | 0.745 | 1.01 | 0.961 | 1.09 | 0.87 | 0.989 | 0.733 | 0.777 | 0.761 | 0.691 | 0.585 | 1.01 | 0.872 | 0.812 | 0.724 | 0.34
2 | BEN | 0.802 | 0.829 | 0.654 | 0.53 | 0.737 | 0.186 | 0.0776 | 0.0786 | 0.0451 | 0.0694 | 1.08 | 1.03 | 1.05 | 0.578 | 1.02 | 0.919 | 0.913 | 0.852 | 0.989 | 0.917
3 | CAL-12T | 1.22 | 1.07 | 1.09 | 1.11 | 1.01 | 1.41 | 1.06 | 1 | 1.18 | 1.24 | 0.294 | 0.336 | 0.346 | 0.307 | 0.288 | 0.76 | 0.816 | 0.572 | 0.538 | 0.874
4 | COR-L23 | 1.14 | 0.986 | 0.977 | 0.986 | 0.942 | 1.03 | 1.07 | 1.18 | 1.11 | 0.899 | 0.576 | 0.514 | 0.648 | 0.566 | 0.43 | 0.746 | 0.51 | 0.765 | 0.653 | 0.759
5 | COR-L 105 | 1.16 | 1.19 | 0.729 | 0.883 | 0.899 | 0.818 | 0.761 | 1.25 | 0.684 | 0.872 | 0.443 | 0.401 | 0.43 | 0.453 | 0.396 | 1 | 0.843 | 0.881 | 0.701 | 0.927
6 | ChaGo-K-1 | 0.883 | 0.885 | 0.944 | 0.882 | 0.932 | 1.06 | 0.882 | 0.799 | – | 0.942 | 0.889 | 0.939 | 0.919 | 0.847 | 0.85 | 1.26 | 1.08 | 1.25 | – | 1.14
7 | EKVX | 0.919 | 0.746 | 0.699 | 0.64 | 0.83 | 1.17 | 0.869 | 0.859 | 0.973 | 0.997 | 0.266 | 0.347 | 0.482 | 0.317 | 0.298 | 1.05 | 1.21 | 1.06 | 0.977 | 1.12
8 | EMC-BAC-2 | 1.11 | 1.01 | 0.791 | 0.957 | 0.61 | 1.29 | 1.22 | 1.21 | 1.18 | 1.27 | 0.966 | 0.92 | 0.998 | 0.857 | 0.755 | 0.818 | 0.79 | 0.795 | 0.745 | 0.36
9 | EPLC-272H | 0.71 | 0.629 | 0.644 | 0.568 | 0.187 | 1.23 | 1.13 | 1.26 | 0.814 | 0.649 | 0.245 | 0.27 | 0.281 | 0.305 | 0.239 | 1.02 | 0.76 | 1.09 | 0.802 | 0.25
10 | H3255 | 0.886 | 0.891 | 0.893 | 0.696 | 0.984 | 0.709 | 0.564 | 0.518 | 0.444 | 0.526 | 0.856 | 0.52 | 0.681 | 0.62 | 0.455 | 0.972 | 0.694 | 0.699 | 0.884 | 0.784
11 | HARA | 1.1 | 0.854 | 0.834 | 1.01 | 0.616 | 1.1 | 1.08 | 1.16 | 1.13 | 1.14 | 1.02 | 0.513 | 0.794 | 0.64 | 0.675 | 1.2 | 1.05 | 1.13 | 1.1 | 0.486
12 | HCC-15 | 1.14 | 1 | 1.14 | 0.981 | 0.62 | 0.792 | 0.661 | 0.704 | 0.725 | 0.535 | 0.396 | 0.4 | 0.399 | 0.353 | 0.387 | 0.925 | 0.766 | 0.857 | 0.793 | 0.472
13 | HCC-78 | 0.541 | 0.539 | 0.502 | 0.51 | 0.487 | 0.851 | 0.641 | 0.817 | 0.582 | 0.671 | 0.867 | 0.702 | 0.633 | 0.572 | 0.78 | 0.373 | 0.356 | 0.34 | 0.35 | 0.309
14 | HCC-366 | 1.02 | 0.915 | 0.952 | 0.905 | 0.896 | 1.12 | 1.07 | 1.13 | 1.06 | 1.19 | 0.33 | 0.361 | 0.404 | 0.275 | 0.288 | 0.616 | 0.527 | 0.688 | 0.529 | 0.65
15 | HCC-827 | 1.11 | 1.04 | 0.951 | 1.05 | 0.704 | 0.962 | 1.02 | 1 | 0.978 | 0.898 | 0.534 | 0.526 | 0.525 | 0.475 | 0.462 | 0.974 | 0.923 | 0.906 | 0.807 | 0.682
16 | HOP-62 | 1.11 | 1.13 | 1.19 | 1.06 | 1 | 1.18 | 1.07 | 1.19 | 1.05 | 1.04 | 0.389 | 0.364 | 0.402 | 0.452 | 0.465 | 0.871 | 0.889 | 0.933 | 0.939 | 0.439
